Values of other authors as cited in patent publication US20220088150A1, “Octreotide Microsphere-Based Arterial Embolization for Treating Obesity” (Biovena Science, LLC, priority 2018, published 2022).

Experiments:
ghrelin secretion = conditions: continuous infusion, dose- and time-dependent
insulin hypersecretion = conditions: six months, 5-15 μg/kg/day
[1] = subcutaneously 5-15 μg/kg/day, six months, compared with placebo

## C[C@@H](O)[C@@H]1NC(=O)[C@H](CCCCN)NC(=O)[C@@H](Cc2c[nH]c3ccccc23)NC(=O)[C@H](Cc2ccccc2)NC(=O)[C@@H](NC(=O)[C@H](N)Cc2ccccc2)CSSC[C@@H](C(=O)N[C@H](CO)[C@@H](C)O)NC1=O [octreotide, D-phenylalanyl-L-cysteinyl-L-phenylalanyl-D-tryptophyl-L-lysyl-L-threonyl-L-cysteinyl-L-threoninol (2→7)-disulfide]
Ghrelin secretion
  ghrelin secretion: suppresses ghrelin secretion
Healthy human subjects
  splanchnic blood flow: reduces splanchnic blood flow
human, in vivo
  gastric emptying: delays gastric emptying
Insulin hypersecretion
  calorie intake decrease: approximately 700 kcal/day
Insulin hypersecretion; vs pre-study observation period, p=0.0001
  BMI: BMI decrease
Insulin hypersecretion; vs six-month pre-study observation period, p=0.04
  weight loss: greater weight loss
[1]
  weight and BMI: effective in stabilizing weight and BMI
